≈ marks a conversion by molar mass, not a printed value.
Legend:
Finegoldia magna [1] = assay: Antibacterial activity against beta-lactamase producing Finegoldia magna by CLSI agar dilution method; type: functional
Clostridium septicum [2] = assay: Antibacterial activity against beta-lactamase producing Clostridium septicum assessed as resistant isolates by CLSI agar dilution method; type: functional
Finegoldia magna [3] = assay: Antibacterial activity against beta-lactamase producing Finegoldia magna assessed as resistant isolates by CLSI agar dilution method; type: functional
Bacteroides caccae [4] = assay: Antibacterial activity against beta-lactamase producing Bacteroides caccae assessed as susceptible isolates by CLSI agar dilution method; type: functional
[5] = test system: Peptostreptococcus anaerobius; assay: Antibacterial activity against beta-lactamase producing Peptostreptococcus anaerobius assessed as resistant isolates by CLSI agar dilution method; type: functional
Clostridium tertium [6] = assay: Antibacterial activity against beta-lactamase producing Clostridium tertium assessed as susceptible isolates by CLSI agar dilution method; type: functional
[7] = test system: Prevotella melaninogenica; assay: Antibacterial activity against Prevotella melaninogenica assessed as susceptible isolates by CLSI agar dilution method; type: functional
Bacteroides fragilis [8] = assay: Antibacterial activity against Bacteroides fragilis by CLSI agar dilution method; type: functional
Phocaeicola vulgatus [9] = assay: Antibacterial activity against beta-lactamase producing Bacteroides vulgatus assessed as resistant isolates by CLSI agar dilution method; type: functional
Prevotella intermedia [10] = assay: Antibacterial activity against Prevotella intermedia assessed as susceptible isolates by CLSI agar dilution method; type: functional
Prevotella bivia [11] = assay: Antibacterial activity against Prevotella bivia assessed as resistant isolates by CLSI agar dilution method; type: functional
Bacteroides caccae [12] = assay: Antibacterial activity against beta-lactamase producing Bacteroides caccae assessed as resistant isolates by CLSI agar dilution method; type: functional
[13] = test system: Clostridium paraputrificum; assay: Antibacterial activity against beta-lactamase producing Clostridium paraputrificum assessed as resistant isolates by CLSI agar dilution method; type: functional
Prevotella buccae [14] = assay: Antibacterial activity against Prevotella buccae assessed as susceptible isolates by CLSI agar dilution method; type: functional, Segatella buccae
Clostridium perfringens = assay: microbe, parasite or virus in culture; type: functional
[15] = test system: Peptostreptococcus anaerobius; assay: Antibacterial activity against beta-lactamase producing Peptostreptococcus anaerobius assessed as susceptible isolates by CLSI agar dilution method; type: functional
Fusobacterium nucleatum [16] = assay: Antibacterial activity against Fusobacterium nucleatum assessed as susceptible isolates by CLSI agar dilution method; type: functional
[17] = test system: Prevotella melaninogenica; assay: Antibacterial activity against Prevotella melaninogenica by CLSI agar dilution method; type: functional
[18] = test system: Bacteroides thetaiotaomicron; assay: Antibacterial activity against beta-lactamase producing Bacteroides thetaiotaomicron assessed as susceptible isolates by CLSI agar dilution method; type: functional
Parvimonas micra [19] = assay: Antibacterial activity against beta-lactamase producing Micromonas micros by CLSI agar dilution method; type: functional
Prevotella buccae [20] = assay: Antibacterial activity against Prevotella buccae assessed as resistant isolates by CLSI agar dilution method; type: functional, Segatella buccae
Bacteroides uniformis [21] = assay: Antibacterial activity against beta-lactamase producing Bacteroides uniformis assessed as resistant isolates by CLSI agar dilution method; type: functional
Bacteroides caccae [22] = assay: Antibacterial activity against beta-lactamase producing Bacteroides caccae by CLSI agar dilution method; type: functional
Bacteroides fragilis [23] = assay: Antibacterial activity against Bacteroides fragilis assessed as resistant isolates by CLSI agar dilution method; type: functional
Phocaeicola vulgatus [24] = assay: Antibacterial activity against beta-lactamase producing Bacteroides vulgatus assessed as susceptible isolates by CLSI agar dilution method; type: functional
Prevotella intermedia [25] = assay: Antibacterial activity against Prevotella intermedia by CLSI agar dilution method; type: functional
[26] = test system: Clostridium paraputrificum; assay: Antibacterial activity against beta-lactamase producing Clostridium paraputrificum by CLSI agar dilution method; type: functional
[27] = test system: Peptoniphilus asaccharolyticus; assay: Antibacterial activity against beta-lactamase producing Peptoniphilus asaccharolyticus assessed as susceptible isolates by CLSI agar dilution method; type: functional
[28] = test system: Clostridium paraputrificum; assay: Antibacterial activity against beta-lactamase producing Clostridium paraputrificum assessed as susceptible isolates by CLSI agar dilution method; type: functional
[29] = test system: Peptoniphilus asaccharolyticus; assay: Antibacterial activity against beta-lactamase producing Peptoniphilus asaccharolyticus assessed as resistant isolates by CLSI agar dilution method; type: functional
[30] = test system: Peptoniphilus asaccharolyticus; assay: Antibacterial activity against beta-lactamase producing Peptoniphilus asaccharolyticus by CLSI agar dilution method; type: functional
Bacteroides uniformis [31] = assay: Antibacterial activity against beta-lactamase producing Bacteroides uniformis by CLSI agar dilution method; type: functional
Bacteroides uniformis [32] = assay: Antibacterial activity against beta-lactamase producing Bacteroides uniformis assessed as susceptible isolates by CLSI agar dilution method; type: functional
Prevotella bivia [33] = assay: Antibacterial activity against Prevotella bivia by CLSI agar dilution method; type: functional
Fusobacterium varium [34] = assay: Antibacterial activity against Fusobacterium varium by CLSI agar dilution method; type: functional
Prevotella buccae [35] = assay: Antibacterial activity against Prevotella buccae by CLSI agar dilution method; type: functional; conditions: Segatella buccae
Clostridium septicum [36] = assay: Antibacterial activity against beta-lactamase producing Clostridium septicum by CLSI agar dilution method; type: functional
Fusobacterium mortiferum [37] = assay: Antibacterial activity against Fusobacterium mortiferum assessed as susceptible isolates by CLSI agar dilution method; type: functional
[38] = test system: Prevotella melaninogenica; assay: Antibacterial activity against Prevotella melaninogenica assessed as resistant isolates by CLSI agar dilution method; type: functional
Parvimonas micra [39] = assay: Antibacterial activity against beta-lactamase producing Micromonas micros assessed as resistant isolates by CLSI agar dilution method; type: functional
Fusobacterium varium [40] = assay: Antibacterial activity against Fusobacterium varium assessed as resistant isolates by CLSI agar dilution method; type: functional
Prevotella bivia [41] = assay: Antibacterial activity against Prevotella bivia assessed as susceptible isolates by CLSI agar dilution method; type: functional
[42] = test system: Peptostreptococcus anaerobius; assay: Antibacterial activity against beta-lactamase producing Peptostreptococcus anaerobius by CLSI agar dilution method; type: functional
Fusobacterium nucleatum [43] = assay: Antibacterial activity against Fusobacterium nucleatum by CLSI agar dilution method; type: functional
Fusobacterium varium [44] = assay: Antibacterial activity against Fusobacterium varium assessed as susceptible isolates by CLSI agar dilution method; type: functional
[45] = test system: Bacteroides thetaiotaomicron; assay: Antibacterial activity against beta-lactamase producing Bacteroides thetaiotaomicron by CLSI agar dilution method; type: functional
Clostridium tertium [46] = assay: Antibacterial activity against beta-lactamase producing Clostridium tertium by CLSI agar dilution method; type: functional
Fusobacterium mortiferum [47] = assay: Antibacterial activity against Fusobacterium mortiferum by CLSI agar dilution method; type: functional
Bacteroides fragilis [48] = assay: Antibacterial activity against Bacteroides fragilis assessed as susceptible isolates by CLSI agar dilution method; type: functional
Clostridium septicum [49] = assay: Antibacterial activity against beta-lactamase producing Clostridium septicum assessed as susceptible isolates by CLSI agar dilution method; type: functional
[50] = test system: Bacteroides thetaiotaomicron; assay: Antibacterial activity against beta-lactamase producing Bacteroides thetaiotaomicron assessed as resistant isolates by CLSI agar dilution method; type: functional
Prevotella intermedia [51] = assay: Antibacterial activity against Prevotella intermedia assessed as resistant isolates by CLSI agar dilution method; type: functional
Finegoldia magna [52] = assay: Antibacterial activity against beta-lactamase producing Finegoldia magna assessed as susceptible isolates by CLSI agar dilution method; type: functional
[53] = test system: Fusobacterium necrophorum; assay: Antibacterial activity against Fusobacterium necrophorum assessed as susceptible isolates by CLSI agar dilution method; type: functional
[54] = test system: Fusobacterium necrophorum; assay: Antibacterial activity against Fusobacterium necrophorum assessed as resistant isolates by CLSI agar dilution method; type: functional
Phocaeicola vulgatus [55] = assay: Antibacterial activity against beta-lactamase producing Bacteroides vulgatus by CLSI agar dilution method; type: functional
Parvimonas micra [56] = assay: Antibacterial activity against beta-lactamase producing Micromonas micros assessed as susceptible isolates by CLSI agar dilution method; type: functional
Veillonella parvula = assay: Antibacterial activity against Veillonella parvula by CLSI agar dilution method; type: functional
Fusobacterium mortiferum [57] = assay: Antibacterial activity against Fusobacterium mortiferum assessed as resistant isolates by CLSI agar dilution method; type: functional
Clostridium tertium [58] = assay: Antibacterial activity against beta-lactamase producing Clostridium tertium assessed as resistant isolates by CLSI agar dilution method; type: functional
Fusobacterium nucleatum [59] = assay: Antibacterial activity against Fusobacterium nucleatum assessed as resistant isolates by CLSI agar dilution method; type: functional
[60] = test system: Fusobacterium necrophorum; assay: Antibacterial activity against Fusobacterium necrophorum by CLSI agar dilution method; type: functional

Question: What does the source list for `CO[C@@]1(NC(=O)CSCC#N)C(=O)N2C(C(=O)O)=C(CSc3nnnn3C)CS[C@@H]21` [CEFMETAZOLE]?
Answer: MIC50 (Finegoldia magna [1]): 0.5 µg/mL (≈ 1.06 µM); MIC90 (Finegoldia magna [1]): 8 µg/mL (≈ 17 µM); Activity (Clostridium septicum [2]): 0%; Activity (Finegoldia magna [3]): 0%; Activity (Bacteroides caccae [4]): 44%; Activity [5]: 0%; Activity (Clostridium tertium [6]): 89%; Activity [7]: 94%; MIC50 (Bacteroides fragilis [8]): 16 µg/mL (≈ 33.9 µM); MIC90 (Bacteroides fragilis [8]): 64 µg/mL (≈ 136 µM); Activity (Phocaeicola vulgatus [9]): 30%; Activity (Prevotella intermedia [10]): 94%; Activity (Prevotella bivia [11]): 6%; Activity (Bacteroides caccae [12]): 30%; Activity [13]: 0%; Activity (Prevotella buccae [14]): 94%; MIC50 (Clostridium perfringens): 1 µg/mL (≈ 2.12 µM); MIC90 (Clostridium perfringens): 16 µg/mL (≈ 33.9 µM); Activity [15]: 97%; Activity (Fusobacterium nucleatum [16]): 100%; MIC50 [17]: 2 µg/mL (≈ 4.24 µM); MIC90 [17]: 8 µg/mL (≈ 17 µM); Activity [18]: 20%; MIC50 (Parvimonas micra [19]): 0.5 µg/mL (≈ 1.06 µM); MIC90 (Parvimonas micra [19]): 8 µg/mL (≈ 17 µM); Activity (Prevotella buccae [20]): 6%; Activity (Bacteroides uniformis [21]): 30%; MIC50 (Bacteroides caccae [22]): 32 µg/mL (≈ 67.9 µM); MIC90 (Bacteroides caccae [22]): 128 µg/mL (≈ 271 µM); Activity (Bacteroides fragilis [23]): 13%; Activity (Phocaeicola vulgatus [24]): 44%; MIC50 (Prevotella intermedia [25]): 2 µg/mL (≈ 4.24 µM); MIC90 (Prevotella intermedia [25]): 8 µg/mL (≈ 17 µM); MIC50 [26]: 1 µg/mL (≈ 2.12 µM); MIC90 [26]: 16 µg/mL (≈ 33.9 µM); Activity [27]: 97%; Activity [28]: 89%; Activity [29]: 0%; MIC50 [30]: 0.5 µg/mL (≈ 1.06 µM); MIC90 [30]: 8 µg/mL (≈ 17 µM); MIC50 (Bacteroides uniformis [31]): 32 µg/mL (≈ 67.9 µM); MIC90 (Bacteroides uniformis [31]): 128 µg/mL (≈ 271 µM); Activity (Bacteroides uniformis [32]): 44%; MIC50 (Prevotella bivia [33]): 2 µg/mL (≈ 4.24 µM); MIC90 (Prevotella bivia [33]): 8 µg/mL (≈ 17 µM); MIC50 (Fusobacterium varium [34]): 1 µg/mL (≈ 2.12 µM); MIC90 (Fusobacterium varium [34]): 2 µg/mL (≈ 4.24 µM); MIC50 (Prevotella buccae [35]): 2 µg/mL (≈ 4.24 µM); MIC90 (Prevotella buccae [35]): 8 µg/mL (≈ 17 µM); MIC50 (Clostridium septicum [36]): 1 µg/mL (≈ 2.12 µM); MIC90 (Clostridium septicum [36]): 16 µg/mL (≈ 33.9 µM); Activity (Fusobacterium mortiferum [37]): 100%; Activity [38]: 6%; Activity (Parvimonas micra [39]): 0%; Activity (Fusobacterium varium [40]): 0%; Activity (Prevotella bivia [41]): 94%; MIC50 [42]: 0.5 µg/mL (≈ 1.06 µM); MIC90 [42]: 8 µg/mL (≈ 17 µM); MIC50 (Fusobacterium nucleatum [43]): 1 µg/mL (≈ 2.12 µM); MIC90 (Fusobacterium nucleatum [43]): 2 µg/mL (≈ 4.24 µM); Activity (Fusobacterium varium [44]): 100%; MIC50 [45]: 32 µg/mL (≈ 67.9 µM); MIC90 [45]: 64 µg/mL (≈ 136 µM); MIC50 (Clostridium tertium [46]): 1 µg/mL (≈ 2.12 µM); MIC90 (Clostridium tertium [46]): 16 µg/mL (≈ 33.9 µM); MIC50 (Fusobacterium mortiferum [47]): 1 µg/mL (≈ 2.12 µM); MIC90 (Fusobacterium mortiferum [47]): 2 µg/mL (≈ 4.24 µM); Activity (Bacteroides fragilis [48]): 72%; Activity (Clostridium septicum [49]): 89%; Activity [50]: 17%; Activity (Prevotella intermedia [51]): 6%; Activity (Finegoldia magna [52]): 97%; Activity [53]: 100%; Activity [54]: 0%; MIC50 (Phocaeicola vulgatus [55]): 32 µg/mL (≈ 67.9 µM); MIC90 (Phocaeicola vulgatus [55]): 128 µg/mL (≈ 271 µM); Activity (Parvimonas micra [56]): 97%; MIC (Veillonella parvula): > 0.25 µg/mL; Activity (Fusobacterium mortiferum [57]): 0%; Activity (Clostridium tertium [58]): 0%; Activity (Fusobacterium nucleatum [59]): 0%; MIC50 [60]: 1 µg/mL (≈ 2.12 µM); MIC90 [60]: 2 µg/mL (≈ 4.24 µM)

From ChEMBL document CHEMBL1671627, “Increasing trends in antimicrobial resistance among clinically important anaerobes and Bacteroides fragilis isolates causing nosocomial infections: emerging resistance to carbapenems” (2008)
